Experimental findings from patent US11028090B2 (Dong Wha Pharm. Co., Ltd., priority 2017, dated 2021) are described below.

What is called IC50 is the concentration that inhibits the measured activity by half.

The target in assay [1] is BRD4 (BD1+BD2) bromodomain (Homo sapiens (Human), UniProt O60885). Put plainly: BRD4 binding inhibition (AlphaScreen, GST-BRD4 vs tetraacetylated histone H4 peptide). The method in brief: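 GST-BRD4 (BD1+BD2) and biotinylated tetraacetyl-histone H4 peptide, each at 100 nM in HEPES pH 7.4 buffer with BSA and DTT, were combined with compound. Glutathione acceptor and streptavidin donor beads were added, then incubated 30 min at room temperature in the dark. Read-out was AlphaScreen signal.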
Background: Alpha assays give light when donor and acceptor beads are brought close together.

Assay [2] relates to acute myelogenous leukemia cells (MV-4-11 cells). Put plainly: Cytotoxicity to acute myelogenous leukemia cells (MV-4-11 cells), CCK-8. The note with it: Homo sapiens, MV4-11, 72 h.
[3] abbreviates: GST-BRD4 (BD1+BD2) / biotinylated acetyl-histone H4 (Lys5,8,12,16) peptide, read-out: IC50, BRD4 binding inhibition.
Setting [4] is: GST-BRD4 (BD1+BD2) vs biotinylated acetyl-histone H4 peptide, AlphaScreen, read-out: BRD4 IC50.
The mark [5] stands for this setting: read-out: MV-4-11 Cytotoxicity IC50.
Where [6] appears, read: read-out: IC50, cytotoxicity against acute myelogenous leukemia cells.

Each structure is given as a SMILES string. Read-outs that look alike come from different tables or passages of the source. Bounds are passed on as bounds.

Turning to `COCCOc1ccc2c(c1)nc(NCCCCNC(=O)CC(C)(C)C)c1nnc(C)n12` [Example 382, N-{4-[7-(2-methoxy-ethoxy)-1-methyl-[1,2,4]triazolo[4,3-a]quinoxaline-4-ylamino]-butyl}-3,3-dimethyl-butyramide], the 50% inhibitory concentration (IC50) in assay [1] (setting [3]) was no more than 10 nM; in assay [1] (setting [4]), 5 nM; in assay [2] (setting [5]), 840 nM.
Regarding `COCCOc1ccc2c(c1)nc(NCCCCNC(=O)CCC(C)C)c1nnc(C)n12` [Example 383, 4-methyl-pentanoic acid{4-[7-(2-methoxy-ethoxy)-1-methyl-[1,2,4]triazolo[4,3-a]quinoxaline-4-ylamino]-butyl}-amide], the IC50 is no more than 10 nM in assay [1] (setting [3]), 3 nM in assay [1] (setting [4]), no more than 200 nM in assay [2] (setting [6]) and 73 nM in assay [2] (setting [5]).
The matching figures for `COCCOc1ccc2c(c1)nc(NCCCCNC(=O)[C@H](O)C(C)C)c1nnc(C)n12` [Example 388, 2-(R)-hydroxy-N-{4-[7-(2-methoxy-ethoxy)-1-methyl-[1,2,4]triazolo[4,3-a]quinoxaline-4-ylamino]-butyl}-3-methyl-butyramide]: no more than 10 nM, 6 nM, no more than 200 nM and 55 nM.
Taken in the same sequence, the figures for `COCCOc1ccc2c(c1)nc(NCCCCNC(=O)[C@@H](O)C(C)C)c1nnc(C)n12` [Example 389, 2-(S)-hydroxy-N-{4-[7-(2-methoxy-ethoxy)-1-methyl-[1,2,4]triazolo[4,3-a]quinoxaline-4-ylamino]-butyl}-3-methyl-butyramide] were no more than 10 nM, 2 nM, no more than 200 nM and 79 nM.
Taken in the same sequence, the figures for `CCC(F)(F)C(=O)NCCCCNc1nc2cc(OCCOC)ccc2n2c(C)nnc12` [Example 391, 2,2-difluoro-N-{4-[7-(2-methoxy-ethoxy)-1-methyl-[1,2,4]triazolo[4,3-a]quinoxaline-4-ylamino]-butyl}-butyramide] were no more than 10 nM, 5 nM, no more than 200 nM and 200 nM.
`COCCOc1ccc2c(c1)nc(NCCCCNC(=O)CCC1CCCC1)c1nnc(C)n12` [Example 393, 3-cyclopentyl-N-{4-[7-(2-methoxy-ethoxy)-1-methyl-[1,2,4]triazolo[4,3-a]quinoxaline-4-ylamino]-butyl}-propionamide]: the IC50 in assay [1] (setting [3]) was no more than 10 nM; in assay [1] (setting [4]), 3 nM; in assay [2] (setting [6]), no more than 200 nM; in assay [2] (setting [5]), 170 nM.
Take `COCCOc1ccc2c(c1)nc(NCCCCNC(=O)C(NC(=O)OC(C)(C)C)C(C)C)c1nnc(C)n12` (stereo not drawn) [Example 396, (1-{4-[7-(2-methoxy-ethoxy)-1-methyl-[1,2,4]triazolo[4,3-a]quinoxaline-4-ylamino]-butylcarbamoyl}-2-methyl-propyl)-carbamic acid-tert-butylester]: the IC50 in assay [1] (setting [3]) is no more than 10 nM; in assay [1] (setting [4]) it was 7 nM; in assay [2] (setting [5]), 760 nM.
With `COCCOc1ccc2c(c1)nc(NCCCCNC(=O)[C@@H](NC(=O)OCC(C)C)C(C)C)c1nnc(C)n12` [Example 398, (S)-(1-{4-[7-(2-methoxy-ethoxy)-1-methyl-[1,2,4]triazolo[4,3-a]quinoxaline-4-ylamino]-butylcarbamoyl}-2-methyl-propyl)-carbamic acid isobutylester], the IC50 in assay [1] (setting [3]) is no more than 10 nM; in assay [1] (setting [4]), 1 nM; in assay [2] (setting [5]), 790 nM.
The matching figures for `CCCOC(=O)N[C@H](C(=O)NCCCCNc1nc2cc(OCCOC)ccc2n2c(C)nnc12)C(C)C` [Example 399, (S)-(1-{4-[7-(2-methoxy-ethoxy)-1-methyl-[1,2,4]triazolo[4,3-a]quinoxaline-4-ylamino]-butylcarbamoyl}-2-methyl-propyl)-carbamic acid propylester]: no more than 10 nM, 1 nM and 570 nM.
The matching figures for `COCCOc1ccc2c(c1)nc(NCCCCNC(=O)[C@@H](NC(=O)OC(C)C)C(C)C)c1nnc(C)n12` [Example 400, (S)-(1-{4-[7-(2-methoxy-ethoxy)-1-methyl-[1,2,4]triazolo[4,3-a]quinoxaline-4-ylamino]-butylcarbamoyl}-2-methyl-propyl)-carbamic acid isopropylester]: no more than 10 nM, 1 nM and 200 nM.
`COCCOc1ccc2c(c1)nc(NCCCCNC(=O)Cc1cccs1)c1nnc(C)n12` [Example 406, N-{4-[7-(2-methoxy-ethoxy)-1-methyl-[1,2,4]triazolo[4,3-a]quinoxaline-4-ylamino]-butyl}-2-thiophene-2-yl-acetamide]: the IC50 in assay [1] (setting [3]) was no more than 50 nM; in assay [1] (setting [4]), 14 nM; in assay [2] (setting [6]) it was no more than 200 nM; in assay [2] (setting [5]), 19 nM.
Turning to `COCCOc1ccc2c(c1)nc(NCCCCNC(=O)Cc1ccco1)c1nnc(C)n12` [Example 407, 2-furan-2-yl-N-{4-[7-(2-methoxy-ethoxy)-1-methyl-[1,2,4]triazolo[4,3-a]quinoxaline-4-ylamino]-butyl}-acetamide], the IC50 in assay [1] (setting [3]) is no more than 10 nM; in assay [1] (setting [4]), 7 nM; in assay [2] (setting [5]), 180 nM.
Taken in the same sequence, the figures for `COCCOc1ccc2c(c1)nc(NCCCCNC(=O)c1ccccc1)c1nnc(C)n12` [Example 408, N-{4-[7-(2-methoxy-ethoxy)-1-methyl-[1,2,4]triazolo[4,3-a]quinoxaline-4-ylamino]-butyl}-benzamide] were no more than 50 nM, 13 nM and 620 nM.
Taken in the same sequence, the figures for `COCCOc1ccc2c(c1)nc(NCCCCNC(=O)c1ccccc1F)c1nnc(C)n12` [Example 409, 2-fluoro-N-{4-[7-(2-methoxy-ethoxy)-1-methyl-[1,2,4]triazolo[4,3-a]quinoxaline-4-ylamino]-butyl}-benzamide] were no more than 10 nM, 9 nM and 380 nM.
The matching figures for `COCCOc1ccc2c(c1)nc(NCCCCNC(=O)c1cccc(F)c1)c1nnc(C)n12` [Example 410, 3-fluoro-N-{4-[7-(2-methoxy-ethoxy)-1-methyl-[1,2,4]triazolo[4,3-a]quinoxaline-4-ylamino]-butyl}-benzamide]: no more than 50 nM, 12 nM and 790 nM.
Turning to `COCCOc1ccc2c(c1)nc(NCCCCNC(=O)c1ccccc1Cl)c1nnc(C)n12` [Example 411, 2-chloro-N-{4-[7-(2-methoxy-ethoxy)-1-methyl-[1,2,4]triazolo[4,3-a]quinoxaline-4-ylamino]-butyl}-benzamide], the IC50 is no more than 50 nM in assay [1] (setting [3]), 19 nM in assay [1] (setting [4]), no more than 200 nM in assay [2] (setting [6]) and 150 nM in assay [2] (setting [5]).
For the molecule `COCCOc1ccc2c(c1)nc(NCCCCNC(=O)c1cccc(Cl)c1Cl)c1nnc(C)n12` [Example 413, 2,3-dichloro-N-{4-[7-(2-methoxy-ethoxy)-1-methyl-[1,2,4]triazolo[4,3-a]quinoxaline-4-ylamino]-butyl}-benzamide], the IC50 in assay [1] (setting [3]) is no more than 10 nM; in assay [2] (setting [5]), 190 nM.
Consider `COCCOc1ccc2c(c1)nc(NCCCCNC(=O)c1ccccc1OC)c1nnc(C)n12` [Example 414, 2-methoxy-N-{4-[7-(2-methoxy-ethoxy)-1-methyl-[1,2,4]triazolo[4,3-a]quinoxaline-4-ylamino]-butyl}-benzamide], for which the figures for the IC50 in assay [1] (setting [3]), in assay [1] (setting [4]) and in assay [2] (setting [5]) were no more than 50 nM, 16 nM and 630 nM, respectively.
Consider `COCCOc1ccc2c(c1)nc(NCCCCNC(=O)Cc1ccccc1)c1nnc(C)n12` [Example 420, N-{4-[7-(2-methoxy-ethoxy)-1-methyl-[1,2,4]triazolo[4,3-a]quinoxaline-4-ylamino]-butyl}-2-phenyl-acetamide], for which the IC50 was no more than 10 nM in assay [1] (setting [3]), 2 nM in assay [1] (setting [4]), no more than 200 nM in assay [2] (setting [6]) and 180 nM in assay [2] (setting [5]).
For the molecule `COCCOc1ccc2c(c1)nc(NCCCCNC(=O)NC(C)C)c1nnc(C)n12` [Example 422, 1-isopropyl-3-{4-[7-(2-methoxy-ethoxy)-1-methyl-[1,2,4]triazolo[4,3-a]quinoxaline-4-ylamino]-butyl}-urea], the IC50 is no more than 10 nM in assay [1] (setting [3]), 3 nM in assay [1] (setting [4]) and 450 nM in assay [2] (setting [5]).
For the molecule `COCCOc1ccc2c(c1)nc(NCCCCNC(=O)NC1CCCCC1)c1nnc(C)n12` [Example 426, 1-cyclohexyl-3-{4-[7-(2-methoxy-ethoxy)-1-methyl-[1,2,4]triazolo[4,3-a]quinoxaline-4-ylamino]-butyl}-urea], the IC50 in assay [1] (setting [3]) was no more than 50 nM; in assay [1] (setting [4]), 17 nM; in assay [2] (setting [6]) it was no more than 200 nM; in assay [2] (setting [5]), 190 nM.
As for `Cc1nnc2c(NCCCCNC(=O)OC(C)(C)C)nc3cc(OCCN4CCOCC4)ccc3n12` [Example 430, {4-[1-methyl-7-(2-morpholine-4-yl-ethoxy)-[1,2,4]triazolo[4,3-a]quinoxaline-4-ylamino]-butyl}-carbamic acid-tert-butylester], the concentration for half-maximal inhibition (IC50) is no more than 50 nM in assay [1] (setting [3]), 22 nM in assay [1] (setting [4]) and 600 nM in assay [2] (setting [5]).
As for `Cc1nnc2c(NCCCCNC(=O)CC(C)C)nc3cc(OCCN4CCOCC4)ccc3n12` [Example 432, 3-methyl-N-{4-[1-methyl-7-(2-morpholine-4-yl-ethoxy)-[1,2,4]triazolo[4,3-a]quinoxaline-4-ylamino]-butyl}-butyramide], the half-maximal inhibitory concentration (IC50) in assay [1] (setting [3]) is no more than 50 nM; in assay [1] (setting [4]), 50 nM; in assay [2] (setting [6]), no more than 200 nM; in assay [2] (setting [5]), 100 nM.
